Experimental data: patent US10933077B2, “TLR4 inhibitors for the treatment of human infectious and inflammatory disorders” (UNIVERSITY OF PITTSBURGH—OF THE COMMONWEALTH SYSTEM OF …, priority 2010, dated 2021)
Structures can show the parent of a compound that is named as a salt.

Tests used:
Assay type in all cases: in vivo
[1] = system: LPS-induced NFkB activation; assay: NFkB-luciferase reporter mice assay (LPS-induced endotoxemia); conditions: for inhibition of LPS-induced NFkB activation: 20 nanomoles test compound i.p. 30 minutes prior to LPS 2 mg/kg, 6 hrs, IVIS luciferase imaging
Experimental: (§1) Compound preparation and delivery. All 65 identified compounds were received in solid form and stored at 4° C. until use. Stock solutions of each compound were made by dissolving the appropriate amount of each compound in dimethyl sulfoxide (DMSO) to yield a concentration of 10 mM. Immediately prior to injection into experimental animals, the compounds were diluted to an experimental concentration of 100 uM in phosphate-buffered saline (PBS). Total concentration of DMSO in the final diluted drug was 1%. Compounds were closely examined to insure that no precipitate formed prior to injection and were stored on ice until injection. All compounds were given via intraperitoneal (i.p.) injection in a total volume of 200 ul using a 1 cc syringe and 27 gauge needle. In all experiments listed below, the compounds were delivered to the experimental mice 30 minutes prior to injection with lipopolysaccharide (LPS) to induce endotoxemia. Control animals not receiving compound received 1% DMSO dissolved in PBS. Following drug injection, the mice were observed closely in their cages for signs of immediate toxicity or adverse reaction to the drug, including but not limited to piloerection, tachypnea, bleeding, abnormal or aggressive behavior, signs of altered mental status, and level of activity.
(§2) Induction of endotoxemia. All mice were housed and cared for at the Rangos Research Center, Children's Hospital of Pittsburgh (Pittsburgh, Pa.). All experiments were approved by the Children's Hospital of Pittsburgh Animal Care Committee and by the Institutional Review Board of the University of Pittsburgh. Swiss Webster (CFW) and NFkB-luciferase reporter mice were obtained from The Jackson Laboratory. Throughout the course of all experiments, mice were housed 4 per cage with access to food, water, and standard bedding. Endotoxemia was induced in all experiments by i.p. injection of LPS (Escherichia coli 0111:B4 purified by gel filtration chromatography, >99% pure, Sigma-Aldrich) at a dose of 2 mg/kg for 6 hours. At the end of each experiment, all animals were euthanized by CO2 hypoxia and cervical dislocation.
NFkB-luciferase reporter mice assay. NFkB-luciferase reporter mice, in which the […], were subjected to endotoxemia with or without pretreatment with experimental compounds. The experimental compounds treated by this assay were compounds 1-6, with compounds 1-3 tested first and compounds 4-6 tested later. For both experiments, the mice were 6 weeks old on the date of the experiment. […] After whole body imaging, an additional injection of luciferin is given and animals were euthanized, organs were harvested, and the extent of NFkB activation within various tissues was further analyzed by an additional luminescence image of the individual organs. […]

TLR4 = biological target: T1, TLR4 (Mus musculus, UniProt Q9JHF9+Q9QUK6); assay: CFW endotoxemia assay (observation of behavior and phenotype after LPS); conditions: CFW mice, 20 nanomoles compound i.p. 30 minutes prior to LPS 2 mg/kg, 6 hours; for Observation (Compound “Negatives”): listed as “Negatives”; for Observation (Compound “Hits”): listed as “Hits”
T1 construct: Swiss Webster (CFW) and NFkB-luciferase reporter mice were obtained from The Jackson Laboratory; tissue The Jackson Laboratory; host or cells: whole live Swiss Webster (CFW) mice
T1 sequence (Q9QUK6 26-835): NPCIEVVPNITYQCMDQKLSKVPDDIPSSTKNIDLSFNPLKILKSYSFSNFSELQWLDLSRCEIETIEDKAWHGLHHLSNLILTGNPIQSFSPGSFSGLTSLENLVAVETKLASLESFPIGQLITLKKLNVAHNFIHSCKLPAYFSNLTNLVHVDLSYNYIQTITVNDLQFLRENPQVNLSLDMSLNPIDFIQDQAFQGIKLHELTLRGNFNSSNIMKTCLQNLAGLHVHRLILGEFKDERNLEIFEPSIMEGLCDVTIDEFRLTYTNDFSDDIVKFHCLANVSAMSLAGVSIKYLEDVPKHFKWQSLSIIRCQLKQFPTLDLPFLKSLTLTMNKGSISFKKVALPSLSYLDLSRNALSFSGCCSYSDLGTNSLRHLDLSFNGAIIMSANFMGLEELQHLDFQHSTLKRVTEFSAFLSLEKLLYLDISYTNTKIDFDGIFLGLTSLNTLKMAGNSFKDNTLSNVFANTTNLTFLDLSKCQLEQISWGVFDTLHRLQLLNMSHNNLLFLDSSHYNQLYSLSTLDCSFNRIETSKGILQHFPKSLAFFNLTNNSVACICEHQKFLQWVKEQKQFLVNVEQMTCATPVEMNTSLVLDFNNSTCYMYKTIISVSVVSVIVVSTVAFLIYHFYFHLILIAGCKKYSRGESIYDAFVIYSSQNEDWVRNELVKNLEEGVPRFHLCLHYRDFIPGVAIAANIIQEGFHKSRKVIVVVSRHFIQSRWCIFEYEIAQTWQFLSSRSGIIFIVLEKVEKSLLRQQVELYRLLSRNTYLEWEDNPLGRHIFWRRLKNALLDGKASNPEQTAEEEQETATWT
T1 sequence (Q9JHF9 19-160): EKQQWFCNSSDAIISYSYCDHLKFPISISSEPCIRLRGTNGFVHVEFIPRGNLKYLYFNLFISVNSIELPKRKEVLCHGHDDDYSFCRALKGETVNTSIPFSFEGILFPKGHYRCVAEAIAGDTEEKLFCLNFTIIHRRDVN
Experimental: as §1, §2
CFW endotoxemia assay. In order to effectively screen the entire compound list, the remaining compounds (7-60) were screened in a model of endotoxemia using CFW mice. Three separate experiments were performed: First, Compound 7 along with a repeat of compound 4 (n=3 mice per compound, mice age 5 weeks) were tested. Controls were saline injection alone (n=1), LPS 2 mg/kg 6 hrs (n=2). Second, compounds 3, 4, 6, 8-32 were tested (n=1 mouse each, 3 week old mice). Controls were saline injection alone (n=1), LPS 2 mg/kg 6 hrs (n=2), LPS 10 mg/kg 6 hrs (n=2), Bay 11 pretreatment 20 mg/kg for 30 minutes prior to LPS 2 mg/kg 6 hrs. Third, compounds 8, 16, 33-60 were tested (n=1 mouse each, 3 week old mice). Controls were saline injection alone (n=1), LPS 2 mg/kg 6 hrs (n=2), Bay 11 pretreatment 20 mg/kg for 30 minutes prior to LPS 2 mg/kg 6 hrs. Following 6 hours of endotoxemia, mice from the second and third experiments were observed within their cages and videotaped to document behavior and phenotypic differences to assess for an inhibitory effect of compound pretreatment on the effects of LPS. Mice were identified by a number previously placed using permanent marker on their tails. The degree of piloerection, tachypnea, location in the cage (center of cage versus corners), degree of activity, and behavior relative to other animals was observed and documented via video for each mouse.
Less activity, tachypnea, and piloerection are considered symptomatic of endotoxemia, so a decrease in these is consistent with TLR inhibition by the administered compound. Note that compounds listed as negatives may still be T4Ics at other concentrations or conditions.

iNOS mRNA = assay: CFW-NEC mouse model (formula feeding), iNOS mRNA levels; conditions: 1 mg/kg, i.p., once daily for the first four days of the five day model; relative to RPLO
Source text: Inducible nitric oxide synthase (iNOS) is associated with necrotizing enterocolitis (NEC) in human infants. In a second set of experiments, the CFW-NEC mouse model system for NEC was used to evaluate the effect of various compounds from TABLES 1 and 2 above on iNOS mRNA levels. A model system for NEC was induced in newborn mouse pups by formula feeding, where control animals were breast-fed (Sodhi et al., 2010, Gastroenterol. 138(1):185-196; Richardson et al., 2010, Gastroenterol. 139(3):904-917). […] Note that RPLO stands for 505 ribosomal subunit protein L15, an acknowledged housekeeping gene, which means that it is a constitutive gene expressed at relatively constant levels by all cells and is thus used as a reference for comparing other genes which may vary under experimental conditions. In this same model system, levels of TLR4 mRNA levels were also evaluated. […] In contrast, the level of TLR4 was not increased in FF animals treated with C34 (1 mg/kg, i.p. once daily for the first four days of the five day model) and indeed mRNA levels were 30 percent below normal (see FIG. 14).

`CC(=O)NC1C(OP(=O)(O)O)OC(CO)C(O)C1O` (centres unmarked) [Compound 4, 3-acetamido-4,5-dihydroxy-6-(hydroxymethyl)tetrahydro-2H-pyran-2-yl dihydrogen phosphate, sodium salt] was tested, and the “inhibition of LPS-induced NFkB activation” value ([1]; phosphate, sodium salt) was “greatest inhibitory activity”.
For `CCCCCCCCCCCCCCCCCCCCCCCCCC(=O)NC(COC1OC(CO)C(O)C(O)C1O)C(O)C(O)CCCCCCCCCCCCCC` [Compound 2, N-{(1S,2S,3R)-1-[(beta-L-glycero-hexopyranosyloxy)methyl]-2,3-dihydroxyheptadecyl}hexacosanamide], the “inhibition of LPS-induced NFkB activation” value [1] was “exception”.
In the case of `CC(=O)N[C@H]1C(O)O[C@H](CO)[C@H](O)[C@@H]1O.O` (stereo partly drawn) [Compound 16, 2-(acetylamino)-2-deoxy-D-galactopyranose hydrate], the “NFκB signalling (luciferase imaging)” value ([1]; LPS 2 mg/kg plus compound 1 mg/kg i.p.) is reported as “reduced NFκB signalling”.
In the case of `CC(=O)N[C@@H]1C[C@H](O)[C@@H](CO)O[C@H]1O[C@H]1[C@H](O)[C@@H](O)[C@H](O)O[C@@H]1C(=O)[O-].[Na+]` [Compound 32, sodium (2S,3S,4R,5R,6R)-3-((2S,3R,5S,6R)-3-acetamido-5-hydroxy-6-(hydroxymethyl)tetrahydro-2H-pyran-2-yloxy)-4,5,6-trihydroxytetrahydro-2H-pyran-2-carboxylate], the “Observation (Compound “Negatives”)” value (TLR4) is reported as “More tachypneic, more piloerection”.
For `CC(=O)NC1C(O)OC(CO)[C@@H](O[C@@H]2OC(CO)[C@H](O)C(O)C2O)C1O` (some centres unmarked) [Compound 27, 2-(acetylamino)-2-deoxy-4-O-hexopyranosylhexopyranose], the “increase of iNOS mRNA level in formula-fed (FF) pups” value (iNOS mRNA) was “much less”.
For `COC(=O)C1(OC)CC(O)C(NC(C)=O)C(C(O)C(O)CO)O1` [Compound 25, dimethyl 5-(acetylamino)-3,5-dideoxy-D-erythro-non-2-ulopyranosidonate], the “Observation (Compound “Negatives”)” value (TLR4) was “More piloerection, less mobile than other in the cage”.
For “(2R,3S,4R,5R,6R)-5-acetamido-2-(acetoxymethyl)-6-(((3aR,5R,5aS,8aS,8bR)-2,2,7,7-tetramethyltetrahydro-3aH-bis[1,3]dioxolo[4,5-b:4′,5′-d]pyran-5-yl)methoxy)tetrahydro-2H-pyran-3,4-diyl-diacetate [Compound 38]”, the “Observation (Compound “Negatives”)” value (TLR4) was “Less active”.
With `CCCCCCCCCCCCCCCCOC1OC(COC(C)=O)C(OC(C)=O)C(OC(C)=O)C1NC(C)=O` (centres unmarked) [Compound 61, [5-acetamido-3-acetyloxy-2-(acetyloxymethyl)-6-hexadecoxy-oxan-4-yl] acetate] the “Observation (Compound “Hits”)” value (TLR4) was “Less piloerection, less tachypnea”.
In the case of `C=CCO[C@@H]1O[C@H](COC(C)=O)[C@H](OC(C)=O)[C@H](OC(C)=O)[C@H]1NC(C)=O` [Compound 47, allyl 3,4,6-tri-O-acetyl-2-(acetylamino)-2-deoxy-beta-D-lyxo-hexopyranoside], the “Observation (Compound “Hits”)” value (TLR4) is reported as “More active, crawled over other mice, less piloerection”.
With `CC(=O)NC1C(OC(C)C(=O)O)[C@H](O)C(CO)O[C@H]1O` (stereo partly drawn) [Compound 30, 2-((2R,5S)-3-acetamido-2,5-dihydroxy-6-(hydroxymethyl)tetrahydro-2H-pyran-4-yloxy)propanoic acid] the “Observation (Compound “Hits”)” value (TLR4) was “Less tachypnea, more mobile”.
For `CCO[C@@H]1O[C@H](CO)[C@@H](O)[C@H](O)[C@H]1NC(C)=O` [Compound 54, ethyl 2-(acetylamino)-2-deoxy-beta-D-glycero-hexopyranoside], the “Observation (Compound “Hits”)” value (TLR4) was “Less piloerection, less tachypnea”.
